{"source": "patent EP4545548B1", "about": "“INSECT NEUROPEPTIDES” (Solasta Bio Limited, priority 2023, dated 2025)", "test_system": "bees", "assay": "Bee oral toxicity test adapted from OECD Test No. 247 (Bumblebee, Acute Oral Toxicity Test)", "assay_type": "in vivo", "details": "% survival after 96 hours, compared to Imidacloprid, Figure 9", "protocol": "Bee oral testing protocol was carried out adapted from OECD Test No. 247: Bumblebee, Acute Oral Toxicity Test. The toxicity of SB-P-47 was compared with a negative control of sucrose or vehicle, and with a current commercial insecticide Imidacloprid.", "note": "Where a SMILES comes first, the peptide text is derived from it. [ ]: non-standard residue; d: D form. pGlu = O=C1CC[C@@H](C(=O)O)N1", "data": [{"smiles": "CC[C@H](C)[C@H](NC(=O)[C@H](C)NC(=O)[C@@H]1CCC(=O)N1)C(=O)N[C@@H](CCSC)C(=O)N[C@@H](C)C(=O)N[C@@H](CCCNC(=N)N)C(=O)N1CCC[C@H]1C(=O)N[C@@H](CCC(N)=O)C(=O)N[C@H](C(=O)N1CCC[C@H]1C(=O)N[C@@H](CCCNC(=N)N)C(=O)N[C@@H](CC(C)C)C(N)=O)C(C)C", "note": "[SB-P-47, [Pyr]-AIMARPQVPRL-[NH2]] ([pGlu]AIMARPQVPRL-NH2)", "values": [{"measurement": "toxicity to key pollinator species such as bees", "value": "far lower toxicity"}]}]}
